According to patent US10555987B2, “GHRH agonists for the treatment of ischemic disorders” (UNIVERSITY OF MIAMI, priority 2012, dated 2020):
Entries after “also recorded” stand apart in the source; their conditions may differ. Non-standard residues stand in square brackets, D forms with d. Residues, ends and D or L forms follow the SMILES beside them. *: point of attachment. Desaminotyrosyl = O=C(CCc1ccc(O)cc1)*; NMeY = CN[C@@H](Cc1ccc(O)cc1)C(=O)O; Agmatine = N=C(N)NCCCCN*; Nle = CCCC[C@H](N)C(=O)O; Orn = NCCC[C@H](N)C(=O)O; Abu = CC[C@H](N)C(=O)O

Assays:
[1] = system: myocardial infarction (Fisher-344 rats); assay: Echocardiography in rat myocardial infarction model, treatment from 4 weeks post-MI (Example 13); type: in vivo; conditions: mean ± SEM; for EF (4 Weeks): 50 μg/kg s.c. twice daily for 4 weeks; for EF (Baseline): ejection fraction at baseline
Description: (§1) Myocardial infarction (MI) was induced by permanent ligation of the left coronary artery in female 6-month-old Fisher-344 rats. Animals were randomly assigned to receive placebo (DMSO+propylene glycol) or one of the GHRH-agonists (JI-38, MR-356/P-20356, MR-409/P-27409, all 50 μg/kg), starting 4 weeks post-MI. All treatment was given subcutaneously twice daily for 4 weeks.
Echocardiographic measurements were obtained at baseline, 2 days, 1, 2 and 4 weeks. Echocardiographic assessments were performed in anesthetized rats (2% isoflurane inhalation) using a Vevo-770 echocardiogram (Visual Sonics Inc., Toronto, Ontario, Canada) equipped with a 17.5-MHz transducer. Cardiac dimensions: LV end diastolic (LVEDD), end systolic (LVESD) diameters and fractional shortening (FS) were recorded from M-mode images using averaged measurements from 3 to 5 consecutive cardiac cycles according to the American Society of Echocardiography. Ejection fraction (EF) was calculated from bi-dimensional long-axis parasternal views taken through the infarcted area. All images were analyzed using Vevo 770 3.0.0 software (Visual Sonics Inc., Toronto, Ontario, Canada).

[2] = system: myocardial infarction (Fisher-344 rats); assay: Morphometric analysis of infarct size, rat MI model (Example 13); type: in vivo; conditions: 50 μg/kg s.c. twice daily for 4 weeks; mean ± SEM
Description: as §1
Rat hearts were processed using routine histological procedures. Samples were fixed in formalin.
(§2) Paraffin sections were deparaffinized and rehydrated by immersion in xylene followed by a graded series of ethanol. Antigen retrieval was performed by a heat-induced method with citrate buffer (Dako, Carpinteria, Calif.). After blocking with 10% normal donkey serum, sections were incubated with a primary antibody at 37° C. for 1 hour, followed by application of secondary antibody. Omission of the primary antibodies on parallel sections was used as negative control. Nuclei were counterstained with DAPI (Invitrogen, Carlsbad, Calif.). The total numbers of positively-stained cells (c-kit, CD45, phospho-histone H3 [pH3]) were quantified per slide to calculate the number of cells per section on each sample. Morphometric analysis was performed using Adobe Photoshop CS3 (San Jose, Calif.).

[3] = system: myocardial infarction (Fisher-344 rats); assay: Immunostaining of heart tissue (pH3, c-kit, arterioles), rat MI model (Example 13); type: in vivo; conditions: for c-kit (positive cells in the heart) / phospho H3 (positive cells in the heart): 50 μg/kg s.c. twice daily for 4 weeks, mean ± SEM; for number of arterioles: isolectin / SMA22a co-staining of heart sections
Description: as §1, §2
Heart sections were co-stained with isolectin (endothelial cell marker) and vascular smooth muscle (SMA22a) to identify arterioles which play a crucial role in cardiac repair. […] An inverse correlation between number of arterioles and infarct size was observed (FIG. 5C).

GH release = assay: GH releasing potency in vivo, intravenous administration (Example 14, Table 13); set-up: species or system rat; conditions: i.v.; for Relative potency, 5 min / Relative potency, 15 min: JI-38 = 1; for Serum GH level at selected time after injection (ng/ml), 0 min / Serum GH level at selected time after injection (ng/ml), 5 min / Serum GH level at selected time after injection (ng/ml), 15 min: dose 1 μg/kg, mean ± SEM
Method in brief: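 Potency is expressed relative to GHRH(1-29)NH2 and JI-38 (each = 1), via equivalent GHRH(1-29)NH2 dose read from a standard curve. Peptides in 5% mannitol given i.v. or s.c. to anaesthetised male Sprague-Dawley rats (200-250 g); serum GH measured by ELISA at selected times.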

[4] = system: myocardial infarction (Fischer 344 rats); assay: Echocardiography in rat MI model, treatment from 2 hours post-surgery (Example 14); type: in vivo; conditions: echocardiographic measurements at day 2 post-MI
Description: (§3) MI was induced in female 6-month-old Fischer 344 rats by permanent ligation of left ventricular (LV) anterior descending coronary artery. Animals were randomly assigned to receive placebo or one of the following GHRH agonists (MR-356, MR-361, MR-367, MR-403, MR-404, MR-409 and MR-502) starting 2 hours post-surgery. All treatment (50 μg/kg) was given subcutaneously twice daily for 4 weeks. The Institutional Animal Care and Use committee of the University of Miami approved all protocols and experimental procedures.
Longitudinal evaluation of LV remodeling was obtained by echocardiographic measurements between baseline and 4 weeks following MI. Echocardiographic assessments were performed in anesthetized rats (1-2% isoflurane inhalation) using a Vevo-770 echocardiogram (Visual Sonics Inc., Toronto, Ontario, Canada) equipped with 25 MHz transducer. Cardiac dimensions were recorded from M-mode images using averaged measurements from 3 to 5 consecutive cardiac cycles. LV end-diastolic and end-systolic volumes and ejection fraction (EF) were calculated from bi-dimensional long-axis parasternal views taken through the infarcted area. All images were analyzed using Vevo 770 3.0.0 software (Visual Sonics).

[5] = system: myocardial infarction (Fischer 344 rats); assay: Morphometric analysis, percentage of infarcted myocardium (Example 14); type: in vivo, rat; conditions: vs. placebo, FIG. 8
Description: as §3
Slides were prepared with H&E and Masson's trichrome stain to assess cardiac structure and the presence and extent of myocardial scar, respectively. The percentage of infarcted myocardium was calculated.

Row | SMILES | EF (4 Weeks) [1] [%] | EF (Baseline) [1] [%] | MI size (%) [2] [%] | c-kit (positive cells in the heart) [3] | phospho H3 (positive cells in the heart) [3] | number of arterioles [3] | Relative potency, 5 min (GH release) | Relative potency, 15 min (GH release) | Serum GH level at selected time after injection (ng/ml), 0 min (GH release) [ng/mL] | Serum GH level at selected time after injection (ng/ml), 5 min (GH release) [ng/mL] | Serum GH level at selected time after injection (ng/ml), 15 min (GH release) [ng/mL] | EF at day 2 post-MI [4] | infarct size (MI %) ([5]; listed as MR-356) | infarct size (MI %) [5]
1 | CCCC[C@H](NC(=O)[C@@H](NC(=O)[C@H](CC(=O)O)NC(=O)[C@H](CCC(N)=O)NC(=O)[C@H](CC(C)C)NC(=O)[C@H](CC(C)C)NC(=O)[C@H](CCCN)NC(=O)[C@H](CCCNC(=N)N)NC(=O)[C@H](C)NC(=O)[C@H](CO)NC(=O)[C@H](CC(C)C)NC(=O)[C@H](CCC(N)=O)NC(=O)[C@H](CC)NC(=O)[C@H](CC(C)C)NC(=O)[C@@H](NC(=O)[C@H](CCCN)NC(=O)[C@H](CCCNC(=N)N)NC(=O)[C@H](Cc1ccc(O)cc1)NC(=O)[C@H](CO)NC(=O)[C@H](CCC(N)=O)NC(=O)[C@@H](NC(=O)[C@H](Cc1ccccc1)NC(=O)[C@@H](NC(=O)[C@H](C)NC(=O)[C@H](CC(=O)O)NC(=O)[C@H](C)NC(=O)[C@H](Cc1ccc(O)cc1)NC)[C@@H](C)CC)[C@@H](C)O)C(C)C)[C@@H](C)CC)C(=O)N[C@@H](CC(=O)O)C(=O)NCCCCNC(=N)N [Peptide P-20356, [N—Me-Tyr^1, Gln^8, Orn^12, Abu^15, Orn^21, Nle^27, Asp^28, Agm^29]hGHRH(1-29) NH2] (H-[NMeY]ADAIFTQSYR[Orn]VL[Abu]QLSAR[Orn]LLQDI[Nle]D-Agmatine) | 51 ± 2.7 | 88 ± 0.6 | 37 ± 2.5 | 59 ± 7.1 | 65 ± 9.3 | significantly increased | 1.17 | 1.26 | 37.8 ± 5.7 | 632 ± 110 | 250 ± 58.1 | slightly better preserved | significantly attenuated; also recorded: substantial reductions | 
2 | CCCC[C@H](NC(=O)[C@@H](NC(=O)[C@H](CC(=O)O)NC(=O)[C@H](CCC(N)=O)NC(=O)[C@H](CC(C)C)NC(=O)[C@H](CC(C)C)NC(=O)[C@H](CCCN)NC(=O)[C@H](CCCNC(=N)N)NC(=O)[C@H](C)NC(=O)[C@H](CO)NC(=O)[C@H](CC(C)C)NC(=O)[C@H](CCC(N)=O)NC(=O)[C@H](CC)NC(=O)[C@H](CC(C)C)NC(=O)[C@@H](NC(=O)[C@H](CCCN)NC(=O)[C@H](CCCNC(=N)N)NC(=O)[C@H](Cc1ccc(O)cc1)NC(=O)[C@H](CO)NC(=O)[C@H](CCC(N)=O)NC(=O)[C@@H](NC(=O)[C@H](Cc1ccccc1)NC(=O)[C@@H](NC(=O)[C@H](C)NC(=O)[C@H](CC(=O)O)NC(=O)[C@H](C)NC(=O)CCc1ccc(O)cc1)[C@@H](C)CC)[C@@H](C)O)C(C)C)[C@@H](C)CC)C(=O)N[C@@H](CC(=O)O)C(=O)NCCCCNC(=N)N [JI-38, [Dat^1, Gln^8, Orn^12,21, Abu^15, Nle^27, Asp^28, Agm^29]hGHRH(1-29)NH2, reference compound] (Desaminotyrosyl-ADAIFTQSYR[Orn]VL[Abu]QLSAR[Orn]LLQDI[Nle]D-Agmatine) | 47 ± 2.4 | 88 ± 1.2 | 42 ± 1.3 | 53 ± 6.7 | 71 ± 9.2 | significantly increased | 1 | 1 | 48.0 ± 10.4 | 538 ± 58.3 | 198 ± 18.1 | slightly better preserved |  | significantly attenuated; also recorded: substantial reductions
